# Measured values as given in PubChem BioAssay AID210 (DTP/NCI, 2004).
# Inconclusive results and toxic doses are left out.
# Test system: CD2F1 mice, ip Colon 26 adenocarcinoma, median survival T/C
# Assay: NCI In Vivo Anticancer Drug Screen. Data for tumor model Colon 26 Adenocarcinoma (intraperitoneal) in CD2F1 (CDF1) mice
# Conditions: endpoint: median survival time, higher = longer survival
# Protocol: The antitumor activity of compounds was measured in mice bearing transplantable tumors. Survival or tumor size were measured and the results are expressed as the measurement made in the treated group (T) divided by the measurement made in the vehicle treated control group (C). The tumor model used in this assay is Colon 26 Adenocarcinoma (intraperitoneal) in CD2F1 (CDF1) mice
# [1] = dose: 12.5 mg/kg/injection, schedule: Q04DX003 (ip), vehicle: saline
# [2] = dose: 50.0 mg/kg/injection, schedule: Q04DX003 (ip), vehicle: saline
# [3] = dose: 100.0 mg/kg/injection, schedule: Q04DX003 (ip), vehicle: saline
# [4] = dose: 80.0 mg/kg/injection, schedule: Q04DX003 (ip), vehicle: saline
# [5] = dose: 160.0 mg/kg/injection, schedule: Q04DX003 (ip), vehicle: saline
smiles,measurement,setting,value
CC(=O)[C@]1(O)Cc2c(O)c3c(c(O)c2[C@@H](OC2CC(N)C(O)C(C)O2)C1)C(=O)c1c(O)cccc1C3=O (stereo partly drawn),T/C,"dose: 0.7 mg/kg/injection, schedule: Q07DX003 (iv), vehicle: water",106 % of control
same,T/C,"dose: 1.1 mg/kg/injection, schedule: Q07DX003 (iv), vehicle: water",124 % of control
same,T/C,"dose: 1.8 mg/kg/injection, schedule: Q07DX002 (iv), vehicle: water",157 % of control
same,T/C,"dose: 1.8 mg/kg/injection, schedule: Q07DX003 (iv), vehicle: water",157 % of control
same,T/C,"dose: 2.8 mg/kg/injection, schedule: Q07DX002 (iv), vehicle: water",183 % of control
same,T/C,"dose: 2.8 mg/kg/injection, schedule: Q07DX003 (iv), vehicle: water",187 % of control
same,T/C,"dose: 4.2 mg/kg/injection, schedule: Q07DX002 (iv), vehicle: water",104 % of control
same,T/C,"dose: 600.0 micrograms/kg/injection, schedule: Q04DX003 (ip), vehicle: water",92 % of control
N=C(N)SCc1c2ccccc2c(CSC(=N)N)c2ccccc12,T/C,[1],241 % of control
same,T/C,"dose: 25.0 mg/kg/injection, schedule: Q04DX003 (ip), vehicle: saline",186 % of control
same,T/C,[2],248 % of control
same,T/C,[3],216 % of control
same,T/C,"dose: 200.0 mg/kg/injection, schedule: Q04DX003 (ip), vehicle: saline",197 % of control
Nc1nc2c(ncn2C2OC(CO)C(O)C2N)c(=O)[nH]1 (stereo not drawn),T/C,"dose: 3.0 mg/kg/injection, schedule: Q04DX002 (ip), vehicle: saline with Tween-80",95 % of control
same,T/C,"dose: 6.0 mg/kg/injection, schedule: Q04DX002 (ip), vehicle: saline with Tween-80",105 % of control
same,T/C,"dose: 12.0 mg/kg/injection, schedule: Q04DX002 (ip), vehicle: saline with Tween-80",88 % of control
same,T/C,"dose: 24.0 mg/kg/injection, schedule: Q04DX002 (ip), vehicle: saline with Tween-80",88 % of control
same,T/C,"dose: 48.0 mg/kg/injection, schedule: Q04DX002 (ip), vehicle: saline with Tween-80",96 % of control
same,T/C,"dose: 96.0 mg/kg/injection, schedule: Q04DX002 (ip), vehicle: saline with Tween-80",93 % of control
CNCCNc1ccc(NCCNC)c2c1C(=O)c1ccccc1C2=O,T/C,"dose: 1.0 mg/kg/injection, schedule: Q01DX009 (ip), vehicle: acid diluted with saline",154 % of control
same,T/C,"dose: 1.5 mg/kg/injection, schedule: Q01DX009 (ip), vehicle: acid diluted with saline",205 % of control
same,T/C,"dose: 2.0 mg/kg/injection, schedule: Q01DX009 (ip), vehicle: acid diluted with saline",219 % of control
same,T/C,"dose: 3.0 mg/kg/injection, schedule: Q01DX009 (ip), vehicle: acid diluted with saline",236 % of control
same,T/C,"dose: 4.0 mg/kg/injection, schedule: Q01DX009 (ip), vehicle: acid diluted with saline",215 % of control
same,T/C,"dose: 6.0 mg/kg/injection, schedule: Q01DX009 (ip), vehicle: acid diluted with saline",226 % of control
same,T/C,"dose: 8.0 mg/kg/injection, schedule: Q01DX009 (ip), vehicle: acid diluted with saline",225 % of control
same,T/C,"dose: 12.0 mg/kg/injection, schedule: Q01DX009 (ip), vehicle: acid diluted with saline",236 % of control
same,T/C,"dose: 16.0 mg/kg/injection, schedule: Q01DX009 (ip), vehicle: acid diluted with saline",115 % of control
CC(C)CCCCCCCCCCCCC(=O)NCC(=O)NC1C(O)C(O)C(Nc2ncnc3nc[nH]c23)OC1C(O)CO (stereo not drawn),T/C,"dose: 0.5 mg/kg/injection, schedule: Q04DX003 (ip), vehicle: Klucel (hydroxypropylcellulose) (HPC)",91 % of control
same,T/C,"dose: 1.0 mg/kg/injection, schedule: Q04DX003 (ip), vehicle: Klucel (hydroxypropylcellulose) (HPC)",97 % of control
same,T/C,"dose: 2.0 mg/kg/injection, schedule: Q04DX003 (ip), vehicle: Klucel (hydroxypropylcellulose) (HPC)",101 % of control
same,T/C,"dose: 4.0 mg/kg/injection, schedule: Q04DX003 (ip), vehicle: Klucel (hydroxypropylcellulose) (HPC)",103 % of control
Cc1c2oc3c(C)c(N)cc(C(=O)NC4C(=O)NC(C(C)C)C(=O)N5CCCC5C(=O)N(C)CC(=O)N(C)C(C(C)C)C(=O)OC4C)c3nc-2c(C(=O)NC2C(=O)NC(C(C)C)C(=O)N3CCCC3C(=O)N(C)CC(=O)N(C)C(C(C)C)C(=O)OC2C)c(N)c1=O (stereo not drawn),T/C,"dose: 500.0 micrograms/kg/injection, schedule: Q01DX001 (ip), vehicle: saline + alcohol",102 % of control
same,T/C,"dose: 1000.0 micrograms/kg/injection, schedule: Q01DX001 (ip), vehicle: saline + alcohol",102 % of control
CCOC(=O)CC(SP(=S)(OC)OC)C(=O)OCC (stereo not drawn),T/C,"dose: 25.0 mg/kg/injection, schedule: Q04DX002 (ip), vehicle: saline",103 % of control
same,T/C,"dose: 50.0 mg/kg/injection, schedule: Q04DX002 (ip), vehicle: saline",94 % of control
same,T/C,"dose: 100.0 mg/kg/injection, schedule: Q04DX002 (ip), vehicle: saline",104 % of control
same,T/C,"dose: 200.0 mg/kg/injection, schedule: Q04DX002 (ip), vehicle: saline",90 % of control
same,T/C,"dose: 400.0 mg/kg/injection, schedule: Q04DX002 (ip), vehicle: saline",91 % of control
Cc1ncc(CNC(=O)N(CCCl)N=O)c(N)n1,T/C,"dose: 25.0 mg/kg/injection, schedule: Q04DX003 (oral), vehicle: saline",360 % of control
same,T/C,"dose: 40.0 mg/kg/injection, schedule: Q04DX003 (oral), vehicle: saline",340 % of control
same,T/C,"dose: 64.0 mg/kg/injection, schedule: Q04DX003 (oral), vehicle: saline",95 % of control
ClC(Cl)=C(Cl)Cl,T/C,"dose: 75.0 mg/kg/injection, schedule: Q04DX002 (ip), vehicle: other",101 % of control
same,T/C,"dose: 150.0 mg/kg/injection, schedule: Q04DX002 (ip), vehicle: other",93 % of control
same,T/C,"dose: 300.0 mg/kg/injection, schedule: Q04DX002 (ip), vehicle: other",89 % of control
CC(=O)OCc1cc(=O)n(C)c2c3c4c(cc12)c(C)cc(=O)n4CO3,T/C,"dose: 12.5 mg/kg/injection, schedule: Q04DX003 (ip), vehicle: Klucel (hydroxypropylcellulose) (HPC)",106 % of control
same,T/C,"dose: 25.0 mg/kg/injection, schedule: Q04DX003 (ip), vehicle: Klucel (hydroxypropylcellulose) (HPC)",106 % of control
same,T/C,"dose: 50.0 mg/kg/injection, schedule: Q04DX003 (ip), vehicle: Klucel (hydroxypropylcellulose) (HPC)",115 % of control
same,T/C,"dose: 200.0 mg/kg/injection, schedule: Q04DX003 (ip), vehicle: Klucel (hydroxypropylcellulose) (HPC)",115 % of control
CCc1ncnc2cc(OCC3CO3)c(OC)cc12 (stereo not drawn),T/C,"dose: 25.0 mg/kg/injection, schedule: Q03DX002 (iv), vehicle: saline",90 % of control
same,T/C,"dose: 40.0 mg/kg/injection, schedule: Q03DX002 (ip), vehicle: saline",97 % of control
same,T/C,"dose: 40.0 mg/kg/injection, schedule: Q03DX002 (sc), vehicle: saline",86 % of control
same,T/C,"dose: 60.0 mg/kg/injection, schedule: Q03DX002 (ip), vehicle: saline",114 % of control
same,T/C,"dose: 60.0 mg/kg/injection, schedule: Q03DX002 (iv), vehicle: saline",95 % of control
same,T/C,"dose: 60.0 mg/kg/injection, schedule: Q03DX002 (sc), vehicle: saline",86 % of control
C1CN(P2(N3CC3)=NP(N3CC3)(N3CC3)=NP(N3CC3)(N3CC3)=N2)CCO1 (stereo not drawn),T/C,"dose: 6.25 mg/kg/injection, schedule: Q04DX003 (ip), vehicle: saline",92 % of control
same,T/C,[1],121 % of control
same,T/C,[2],163 % of control
CCC(=O)O[C@H]1CC[C@H]2[C@@H]3CCC4=CC(=O)CC[C@]4(C)[C@H]3CC[C@]12C,T/C,[4],87 % of control
same,T/C,[5],96 % of control
same,T/C,"dose: 640.0 mg/kg/injection, schedule: Q04DX003 (ip), vehicle: saline",86 % of control
O=c1[nH]cc(F)c(=O)[nH]1,T/C,"dose: 28.8 mg/kg/injection, schedule: Q04DX003 (sc), vehicle: other",120 % of control
same,T/C,"dose: 36.0 mg/kg/injection, schedule: Q04DX003 (ip), vehicle: saline",175 % of control
same,T/C,"dose: 40.0 mg/kg/injection, schedule: Q04DX003 (ip), vehicle: saline",186 % of control
same,T/C,"dose: 60.0 mg/kg/injection, schedule: Q04DX003 (ip), vehicle: saline",164 % of control
same,T/C,"dose: 70.0 mg/kg/injection, schedule: Q07DX003 (ip), vehicle: saline",152 % of control
same,T/C,[4],95 % of control
same,T/C,[3],79 % of control
same,T/C,"dose: 100.0 mg/kg/injection, schedule: Q07DX003 (ip), vehicle: saline",165 % of control
same,T/C,"dose: 140.0 mg/kg/injection, schedule: Q07DX003 (ip), vehicle: saline",150 % of control
same,T/C,[5],74 % of control
COc1cccc2c1C(=O)c1c(O)c3c(c(O)c1C2=O)C[C@@](O)(C(C)=O)C[C@@H]3OC1CC(O)C(O)C(C)O1 (stereo partly drawn),T/C,"dose: 31.0 mg/kg/injection, schedule: Q07DX002 (iv), vehicle: saline",108 % of control
COC(=O)Nc1cccc(-c2nc3ccc(NC(=O)OC)cc3c(=O)n2-c2ccccc2)c1,T/C,"dose: 64.0 mg/kg/injection, schedule: Q04DX003 (ip), vehicle: Klucel (hydroxypropylcellulose) (HPC)",171 % of control
